# Experimental data published in publication PMC5829263, “Homoarginine and inhibition of human arginase activity: kinetic characterization and biological relevance” (Scientific Reports, 2018).
# Entries after “also recorded” stand apart in the source; their conditions may differ. Counter-ions that a name gives are not always drawn. Like-named read-outs stand apart in the source and are kept apart here.
# Experiments:
# [1] = molecular target: T1, recombinant human arginase 1 (Homo sapiens, UniProt P05089); assay: Arginase 1 inhibition, UPLC-MS measurement of ARG to ORN conversion in HEK293T cell lysate; details: for % of control activity at the corresponding [Inhibitor] ± SE: arginase 1; for % of control activity at the corresponding [Inhibitor] ± SE / remaining activity at 1 µM / remaining activity at 10 µM / remaining activity at 100 µM / remaining activity at 1000 µM / remaining activity at 10000 µM: mean of two experiments; for arginase 1 inhibitor assessment in words: at the concentrations tested, both ARG concentrations; for remaining activity at 1 µM / remaining activity at 10 µM / remaining activity at 100 µM / remaining activity at 1000 µM / remaining activity at 10000 µM: read-out: % of control activity at the corresponding [Inhibitor] ± SE, arginase 1; for remaining activity at 10000 µM: inhibitor 10,000 µM;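 on all read-outs here: arginase 1–expressing HEK293T lysate at 0.05 mg/mL in pH 7.4 phosphate buffer, inhibitor preincubated 5 min with enzyme, then reaction started by adding ARG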
# T1 sequence (P05089 1-322): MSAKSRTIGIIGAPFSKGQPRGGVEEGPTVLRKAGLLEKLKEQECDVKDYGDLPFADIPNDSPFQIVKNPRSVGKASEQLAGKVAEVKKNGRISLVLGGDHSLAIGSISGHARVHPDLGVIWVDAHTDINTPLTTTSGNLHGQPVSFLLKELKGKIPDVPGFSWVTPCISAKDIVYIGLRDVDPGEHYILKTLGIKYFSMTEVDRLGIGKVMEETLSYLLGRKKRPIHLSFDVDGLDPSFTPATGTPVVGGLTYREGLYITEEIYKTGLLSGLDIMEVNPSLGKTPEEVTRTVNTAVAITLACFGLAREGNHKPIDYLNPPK
# Experimental: (§1) Following a 5-min pre-equilibration period reactions were initiated by the addition of the cell lysate solution in 0.05 M phosphate buffer to a pre-equilibrated aqueous solution of the substrate (ARG).
# (§2) The samples were vortex mixed (20 sec) and cooled in an ice/water bath for 10 min prior to centrifugation (5 min, 18,000 × g, room temperature) to precipitate the proteins. An aliquot of the supernatant layer was diluted with a 7:3 mobile phase A/mobile phase B solution into glass UPLC vial inserts.
# (§3) Incubation mixtures comprised of HEK293T cell lysate expressing arginase 1 (0.05 mg/mL) or arginase 2 (0.1 mg/mL), phosphate buffer (0.05 M, pH 7.4), inhibitor (0, 0.1, 1, 10, 100, 1000 or 10000 μM) and ARG (0.1, 2 or 3 mM). Following a 5-min pre-incubation of the potential inhibitor with arginase 1 or arginase 2, reactions were initiated by the addition of a pre-equilibrated solution of the substrate ARG.
# Ki values were derived from fitting the competitive inhibition equation to experimental data. Ki data are the mean of three singlicate experiments.
# [2] = molecular target: T2, recombinant human arginase 2 (Homo sapiens, UniProt P78540); assay: Arginase 2 inhibition, UPLC-MS measurement of ARG to ORN conversion in HEK293T cell lysate; details: for % of control activity at the corresponding [Inhibitor] ± SE: arginase 2; for % of control activity at the corresponding [Inhibitor] ± SE / remaining activity at 1 µM / remaining activity at 10 µM / remaining activity at 100 µM / remaining activity at 1000 µM / remaining activity at 10000 µM: mean of two experiments; for arginase 2 inhibitor assessment in words: at the concentrations tested; for remaining activity at 1 µM / remaining activity at 10 µM / remaining activity at 100 µM / remaining activity at 1000 µM / remaining activity at 10000 µM: read-out: % of control activity at the corresponding [Inhibitor] ± SE, arginase 2; for remaining activity at 10000 µM: inhibitor 10,000 µM;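 on all read-outs here: HEK293T lysate carrying arginase 2 at 0.1 mg/mL in 0.05 M phosphate buffer pH 7.4, inhibitor preincubated with enzyme 5 min before ARG addition started the reaction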
# T2 sequence (P78540 23-354): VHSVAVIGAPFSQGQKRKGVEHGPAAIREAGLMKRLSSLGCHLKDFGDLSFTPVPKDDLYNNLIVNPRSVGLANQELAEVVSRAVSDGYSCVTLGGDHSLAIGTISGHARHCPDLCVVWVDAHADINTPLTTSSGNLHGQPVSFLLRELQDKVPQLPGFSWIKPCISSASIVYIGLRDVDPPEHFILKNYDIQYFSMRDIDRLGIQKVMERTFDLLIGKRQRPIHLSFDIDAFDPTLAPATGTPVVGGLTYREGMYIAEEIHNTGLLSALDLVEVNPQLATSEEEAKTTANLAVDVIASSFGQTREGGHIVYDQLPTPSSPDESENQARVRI
# Experimental: as §1, §2, §3
# Sample were diluted 3:17 in mobile phase solution prior injection.
# [3] = molecular target: T1, recombinant human arginase 1; assay: Arginase 1 activity assay, kinetics of ARG conversion to ORN; type: biochemical; details: absence vs 0.5 mM manganese chloride
# Experimental: Incubation mixtures contained HEK293T cell lysate expressing recombinant human arginase 1 (0.05 mg/mL) or arginase 2 (0.1 mg/mL), phosphate buffer (0.05 M, pH 7.4) and ARG (0 to 15 mM).
# as §1, §2
# Kinetic data are the mean of three singlicate experiments.
structure (smiles),measurement,setting,value
"CN=C(NC)NCCC[C@H](N)C(=O)O [SDMA, NG, N′G-dimethyl-L-arginine dihydrochloride]",% of control activity at the corresponding [Inhibitor] ± SE,"[1]; ARG 100 µM, inhibitor 0.1 µM",96 ± 3%
same,% of control activity at the corresponding [Inhibitor] ± SE,"[1]; ARG 100 µM, inhibitor 1 µM",113 ± 22%
same,% of control activity at the corresponding [Inhibitor] ± SE,"[1]; ARG 100 µM, inhibitor 10 µM",104 ± 4%
same,% of control activity at the corresponding [Inhibitor] ± SE,"[1]; ARG 100 µM, inhibitor 100 µM",106 ± 17%
same,% of control activity at the corresponding [Inhibitor] ± SE,"[1]; ARG 100 µM, inhibitor 1,000 µM",69 ± 10%
same,% of control activity at the corresponding [Inhibitor] ± SE,"[1]; ARG 3 mM, inhibitor 0.1 µM",113 ± 16%
same,% of control activity at the corresponding [Inhibitor] ± SE,"[1]; ARG 3 mM, inhibitor 1 µM",93 ± 5%
same,% of control activity at the corresponding [Inhibitor] ± SE,"[1]; ARG 3 mM, inhibitor 10 µM",92 ± 2%
same,% of control activity at the corresponding [Inhibitor] ± SE,"[1]; ARG 3 mM, inhibitor 100 µM",84 ± 1%
same,% of control activity at the corresponding [Inhibitor] ± SE,"[1]; ARG 3 mM, inhibitor 1,000 µM",73 ± 5%
same,arginase 1 inhibitor assessment in words,[1],poor arginase 1 inhibitors
same,% of control activity at the corresponding [Inhibitor] ± SE,"[2]; ARG 100 µM, inhibitor 0.1 µM",90 ± 2%
same,% of control activity at the corresponding [Inhibitor] ± SE,"[2]; ARG 100 µM, inhibitor 1 µM",96 ± 1%
same,% of control activity at the corresponding [Inhibitor] ± SE,"[2]; ARG 100 µM, inhibitor 10 µM",95 ± 3%
same,% of control activity at the corresponding [Inhibitor] ± SE,"[2]; ARG 100 µM, inhibitor 100 µM",90 ± 1%
same,% of control activity at the corresponding [Inhibitor] ± SE,"[2]; ARG 100 µM, inhibitor 1,000 µM",89 ± 1%
same,% of control activity at the corresponding [Inhibitor] ± SE,"[2]; ARG 2 mM, inhibitor 0.1 µM",96 ± 2%
same,% of control activity at the corresponding [Inhibitor] ± SE,"[2]; ARG 2 mM, inhibitor 1 µM",100 ± 3%
same,% of control activity at the corresponding [Inhibitor] ± SE,"[2]; ARG 2 mM, inhibitor 10 µM",107 ± 1%
same,% of control activity at the corresponding [Inhibitor] ± SE,"[2]; ARG 2 mM, inhibitor 100 µM",102 ± 1%
same,% of control activity at the corresponding [Inhibitor] ± SE,"[2]; ARG 2 mM, inhibitor 1,000 µM",96 ± 1%
same,arginase 2 inhibitor assessment in words,[2],poor arginase inhibitors
[Cl][Mn][Cl] [manganese chloride],rate of ORN formation higher in absence of manganese supplementation,[3],20%
"O=C(O)[C@@H]1CCCN1 [PRO, proline]",arginase 1 inhibitor assessment in words,[1],poor arginase 1 inhibitors; also recorded: no significant inhibition
same,remaining activity at 1 µM,"[1]; ARG 100 µM, inhibitor 1 µM",115 ± 1%
same,remaining activity at 10 µM,"[1]; ARG 100 µM, inhibitor 10 µM",110 ± 1%
same,remaining activity at 100 µM,"[1]; ARG 100 µM, inhibitor 100 µM",110 ± 6%
same,remaining activity at 1000 µM,"[1]; ARG 100 µM, inhibitor 1,000 µM",104 ± 3%
same,remaining activity at 10000 µM,[1]; ARG 100 µM,54 ± 7%
same,remaining activity at 1 µM,"[1]; ARG 3 mM, inhibitor 1 µM",100 ± 1%
same,remaining activity at 10 µM,"[1]; ARG 3 mM, inhibitor 10 µM",113 ± 26%
same,remaining activity at 100 µM,"[1]; ARG 3 mM, inhibitor 100 µM",106 ± 19%
same,remaining activity at 1000 µM,"[1]; ARG 3 mM, inhibitor 1,000 µM",100 ± 17%
same,remaining activity at 10000 µM,[1]; ARG 3 mM,79 ± 20%
same,arginase 2 inhibitor assessment in words,[2],poor inhibitors; also recorded: no significant inhibition
same,remaining activity at 1 µM,"[2]; ARG 100 µM, inhibitor 1 µM",92 ± 10%
same,remaining activity at 10 µM,"[2]; ARG 100 µM, inhibitor 10 µM",99 ± 1%
same,remaining activity at 100 µM,"[2]; ARG 100 µM, inhibitor 100 µM",99 ± 2%
same,remaining activity at 1000 µM,"[2]; ARG 100 µM, inhibitor 1,000 µM",92 ± 7%
same,remaining activity at 10000 µM,[2]; ARG 100 µM,77 ± 16%
same,remaining activity at 1 µM,"[2]; ARG 2 mM, inhibitor 1 µM",98 ± 1%
same,remaining activity at 10 µM,"[2]; ARG 2 mM, inhibitor 10 µM",97 ± 7%
same,remaining activity at 100 µM,"[2]; ARG 2 mM, inhibitor 100 µM",96 ± 12%
same,remaining activity at 1000 µM,"[2]; ARG 2 mM, inhibitor 1,000 µM",98 ± 10%
same,remaining activity at 10000 µM,[2]; ARG 2 mM,75 ± 8%
